For two molecules, IC50 and ED90 results are on record in ChEMBL document CHEMBL4118089, “Pyrazine Analogs for the Treatment of Protozoal Infections” (ACS Med Chem Lett, 2017).

Structures are written as SMILES.

For assay [1], the system named is Plasmodium falciparum. As to the kind of experiment: Antiplasmodial activity against Plasmodium falciparum. The format is functional, organism-based.
Assay [2] deals with Plasmodium falciparum. As to the kind of experiment: Antiplasmodial activity against Plasmodium falciparum infected in mouse. It is filed as functional.

For the molecule `Cc1cncc(-c2cncc(-c3ccc(C(=O)N4CCNCC4)cc3)n2)c1`, the 50% inhibitory concentration (IC50) (usually the point on the concentration scale where inhibition reaches its midpoint) in the assay with Plasmodium falciparum [1] was 0.035 µM. The ED90 in the assay on Plasmodium falciparum [2] amounted to 2.2 mg/kg.

For `O=C(c1ccc(-c2cncc(-c3cncc(F)c3)n2)cc1)N1CCNCC1`, in the assay on Plasmodium falciparum [1], the concentration for half-maximal inhibition (IC50) was found to be 0.025 µM. The molecule further came in with an ED90 in the assay with Plasmodium falciparum [2] of 1.5 mg/kg.
